Test results published in patent US20150105252A1, “SUBSTITUTED PYRAZOLES AS HERBICIDES” (E I DU PONT DE NEMOURS AND COMPANY, priority 2013, published 2015).

Key:
barnyardgrass [1] = experiment: Test A preemergence; format: in vivo, Echinochloa crus-galli; conditions: preemergence
Method in brief: (§1)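 Visual injury rating, 0–100 (0 no effect, 100 complete control), vs untreated controls ~10 days after treatment in greenhouse. Pre: directed soil spray on seeded loam/sand. Post: 2–10 cm plants, 1–2 leaf stage. Formulation: non-phytotoxic solvent mix + surfactant.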

crabgrass, large [2] = experiment: Test A preemergence; format: in vivo, Digitaria sanguinalis; conditions: preemergence
Method in brief: as §1

foxtail, giant [3] = experiment: Test A preemergence; format: in vivo, Setaria faberii; conditions: preemergence
Method in brief: as §1

morningglory [4] = experiment: Test A preemergence; format: in vivo, Ipomoea spp.; conditions: preemergence
Method in brief: as §1

pigweed [5] = experiment: Test A preemergence; format: in vivo, Amaranthus retroflexus; conditions: preemergence
Method in brief: as §1

velvetleaf [6] = experiment: Test A preemergence; format: in vivo, Abutilon theophrasti; conditions: preemergence
Method in brief: as §1

wheat [7] = experiment: Test A preemergence; format: in vivo, Triticum aestivum; conditions: preemergence
Method in brief: as §1

corn [8] = experiment: Test A preemergence; format: in vivo, Zea mays; conditions: preemergence
Method in brief: as §1

barnyardgrass [9] = experiment: Test A postemergence; format: in vivo, Echinochloa crus-galli
Method in brief: as §1

crabgrass, large [10] = experiment: Test A postemergence; format: in vivo, Digitaria sanguinalis
Method in brief: as §1

foxtail, giant [11] = experiment: Test A postemergence; format: in vivo, Setaria faberii
Method in brief: as §1

morningglory [12] = experiment: Test A postemergence; format: in vivo, Ipomoea spp.
Method in brief: as §1

pigweed [13] = experiment: Test A postemergence; format: in vivo, Amaranthus retroflexus
Method in brief: as §1

velvetleaf [14] = experiment: Test A postemergence; format: in vivo, Abutilon theophrasti
Method in brief: as §1

wheat [15] = experiment: Test A postemergence; format: in vivo, Triticum aestivum
Method in brief: as §1

corn [16] = experiment: Test A postemergence; format: in vivo, Zea mays
Method in brief: as §1

rice = experiment: Test B flood; format: in vivo, Oryza sativa; conditions: 250 g ai/ha, visual rating on 0 to 100 scale (0 no effect, 100 complete control), 13 to 15 days
Method in brief: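 Paddy-water application: seedlings at 2-leaf stage, flood depth 3 cm maintained for the test duration. Evaluation after 13–15 days in the greenhouse by eye relative to controls; 0–100 scale.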

sedge, umbrella = experiment: Test B flood; format: in vivo, Cyperus difformis; conditions: 250 g ai/ha, visual rating on 0 to 100 scale (0 no effect, 100 complete control), 13 to 15 days
Experimental: (§2) Seeds selected from rice (Oryza sativa), sedge, umbrella (small-flower umbrella sedge Cyperus difformis), ducksalad (Heteranthera limosa), and barnyardgrass (Echinochloa crus-galli) were grown to the 2-leaf stage for testing. At time of treatment, test pots were flooded to 3 cm above the soil surface, treated by application of test compounds directly to the paddy water, and then maintained at that water depth for the duration of the test.
(§3) Treated plants and controls were maintained in a greenhouse for 13 to 15 days, after which time all species were compared to controls and visually evaluated. Plant response ratings, summarized in Table B, are based on a scale of 0 to 100 where 0 is no effect and 100 is complete control. A dash (-) response means no test result.

ducksalad = experiment: Test B flood; format: in vivo, Heteranthera limosa; conditions: 250 g ai/ha, visual rating on 0 to 100 scale (0 no effect, 100 complete control), 13 to 15 days
Experimental: as §2, §3

barnyardgrass [17] = experiment: Test B flood; format: in vivo, Echinochloa crus-galli; conditions: 250 g ai/ha, visual rating on 0 to 100 scale (0 no effect, 100 complete control), 13 to 15 days
Experimental: as §2, §3

[18] = 125 g ai/ha, visual injury, 0 to 100 scale, approx. 10 days
[19] = 500 g ai/ha, visual injury after approx. 10 days, 0 to 100 scale (0 no effect, 100 complete control)
[20] = Postemergence, 125 g ai/ha, 0 to 100 scale, 0 no effect, 100 complete control
[21] = Postemergence, 500 g ai/ha, visual rating after approx. 10 days, 0 to 100 scale (0 no effect, 100 complete control)
[22] = postemergence, 125 g ai/ha, about 10 days, visual rating on 0 to 100 scale (0 no effect, 100 complete control)

In the case of `CCc1cc(C(=O)NC2CC2)nn1Cc1cccc(C(F)(F)F)n1` [Compound 91], the “Barnyardgrass plant response rating” value (barnyardgrass [1]; [18]) is reported as 0, the “Barnyardgrass plant response rating” value (barnyardgrass [1]; [19]) is reported as 0 and the “Crabgrass, Large plant response rating” value (crabgrass, large [2]; [18]) is reported as 0. The “Crabgrass, Large plant response rating” value (crabgrass, large [2]; [19]) was 20, the “Foxtail, Giant plant response rating” value (foxtail, giant [3]; [18]) was 0 and the “Foxtail, Giant plant response rating” value (foxtail, giant [3]; [19]) was 0. For the same molecule, the “Morningglory plant response rating” value (morningglory [4]; [18]) was 0, the “Morningglory plant response rating” value (morningglory [4]; [19]) was 0 and the “Pigweed plant response rating” value (pigweed [5]; [18]) was 0. For the same molecule, the “Pigweed plant response rating” value (pigweed [5]; [19]) was 40, the “Velvetleaf plant response rating” value (velvetleaf [6]; [18]) was 0 and the “Velvetleaf plant response rating” value (velvetleaf [6]; [19]) was 0. The “Wheat plant response rating” value (wheat [7]; [18]) was 0, the “Wheat plant response rating” value (wheat [7]; [19]) was 0 and the “Corn plant response rating” value (corn [8]; [18]) was 0. The “Corn plant response rating” value (corn [8]; [19]) was 0, the “Barnyardgrass plant response rating” value (barnyardgrass [9]; [20]) was 0 and the “Barnyardgrass plant response rating” value (barnyardgrass [9]; [21]) was 10. The “Crabgrass, Large plant response rating” value (crabgrass, large [10]; [21]) was 10, the “Crabgrass, Large plant response rating” value (crabgrass, large [10]; [22]) was 0 and the “Foxtail, Giant plant response rating” value (foxtail, giant [11]; [21]) was 10. For the same molecule, the “Foxtail, Giant plant response rating” value (foxtail, giant [11]; [22]) was 0, the “Morningglory plant response rating” value (morningglory [12]; [21]) was 20 and the “Morningglory plant response rating” value (morningglory [12]; [22]) was 10. The “Pigweed plant response rating” value (pigweed [13]; [21]) was 40, the “Pigweed plant response rating” value (pigweed [13]; [22]) was 20 and the “Velvetleaf plant response rating” value (velvetleaf [14]; [21]) was 10. The “Velvetleaf plant response rating” value (velvetleaf [14]; [22]) was 10, the “Wheat plant response rating” value (wheat [15]; [21]) was 0 and the “Wheat plant response rating” value (wheat [15]; [22]) was 0. The “Corn plant response rating” value (corn [16]; [21]) was 10, the “Corn plant response rating” value (corn [16]; [22]) was 0 and the “Plant response rating, Rice” value (rice) was 0. The “Plant response rating, Sedge, Umbrella” value (sedge, umbrella) was 0, the “Plant response rating, Ducksalad” value (ducksalad) was 0 and the “Plant response rating, Barnyardgrass” value (barnyardgrass [17]) was 0.
In the case of `CCCc1cc(C(=O)Nc2ccc(F)cc2)nn1Oc1ccnc(C(F)(F)F)c1` [Compound 94], the “Barnyardgrass plant response rating” value (barnyardgrass [1]; [18]) is reported as 0, the “Barnyardgrass plant response rating” value (barnyardgrass [1]; [19]) is reported as 0 and the “Crabgrass, Large plant response rating” value (crabgrass, large [2]; [18]) is reported as 0. For the same molecule, the “Crabgrass, Large plant response rating” value (crabgrass, large [2]; [19]) was 0, the “Foxtail, Giant plant response rating” value (foxtail, giant [3]; [18]) was 0 and the “Foxtail, Giant plant response rating” value (foxtail, giant [3]; [19]) was 0. For the same molecule, the “Morningglory plant response rating” value (morningglory [4]; [18]) was 0, the “Morningglory plant response rating” value (morningglory [4]; [19]) was 0 and the “Pigweed plant response rating” value (pigweed [5]; [18]) was 0. The “Pigweed plant response rating” value (pigweed [5]; [19]) was 0, the “Velvetleaf plant response rating” value (velvetleaf [6]; [18]) was 0 and the “Velvetleaf plant response rating” value (velvetleaf [6]; [19]) was 0. The “Wheat plant response rating” value (wheat [7]; [18]) was 0, the “Wheat plant response rating” value (wheat [7]; [19]) was 0 and the “Corn plant response rating” value (corn [8]; [18]) was 0. The “Corn plant response rating” value (corn [8]; [19]) was 0, the “Barnyardgrass plant response rating” value (barnyardgrass [9]; [20]) was 0 and the “Barnyardgrass plant response rating” value (barnyardgrass [9]; [21]) was 0. The “Crabgrass, Large plant response rating” value (crabgrass, large [10]; [21]) was 0, the “Crabgrass, Large plant response rating” value (crabgrass, large [10]; [22]) was 0 and the “Foxtail, Giant plant response rating” value (foxtail, giant [11]; [21]) was 0. For the same molecule, the “Foxtail, Giant plant response rating” value (foxtail, giant [11]; [22]) was 0, the “Morningglory plant response rating” value (morningglory [12]; [21]) was 0 and the “Morningglory plant response rating” value (morningglory [12]; [22]) was 0. For the same molecule, the “Pigweed plant response rating” value (pigweed [13]; [21]) was 0, the “Pigweed plant response rating” value (pigweed [13]; [22]) was 0 and the “Velvetleaf plant response rating” value (velvetleaf [14]; [21]) was 0. For the same molecule, the “Velvetleaf plant response rating” value (velvetleaf [14]; [22]) was 0, the “Wheat plant response rating” value (wheat [15]; [21]) was 0 and the “Wheat plant response rating” value (wheat [15]; [22]) was 0. For the same molecule, the “Corn plant response rating” value (corn [16]; [21]) was 0, the “Corn plant response rating” value (corn [16]; [22]) was 0 and the “Plant response rating, Rice” value (rice) was 0. For the same molecule, the “Plant response rating, Sedge, Umbrella” value (sedge, umbrella) was 0, the “Plant response rating, Ducksalad” value (ducksalad) was 0 and the “Plant response rating, Barnyardgrass” value (barnyardgrass [17]) was 0.
For `CCc1cc(C(=O)NCC(F)(F)C(F)(F)F)nn1Cc1ccnc(C(F)(F)F)c1` [Compound 102], the “Barnyardgrass plant response rating” value (barnyardgrass [1]; [18]) was 20, the “Barnyardgrass plant response rating” value (barnyardgrass [1]; [19]) was 90 and the “Crabgrass, Large plant response rating” value (crabgrass, large [2]; [18]) was 60. The “Crabgrass, Large plant response rating” value (crabgrass, large [2]; [19]) was 100, the “Foxtail, Giant plant response rating” value (foxtail, giant [3]; [18]) was 90 and the “Foxtail, Giant plant response rating” value (foxtail, giant [3]; [19]) was 100. The “Morningglory plant response rating” value (morningglory [4]; [18]) was 10, the “Morningglory plant response rating” value (morningglory [4]; [19]) was 50 and the “Pigweed plant response rating” value (pigweed [5]; [18]) was 90. For the same molecule, the “Pigweed plant response rating” value (pigweed [5]; [19]) was 90, the “Velvetleaf plant response rating” value (velvetleaf [6]; [18]) was 0 and the “Velvetleaf plant response rating” value (velvetleaf [6]; [19]) was 100. The “Wheat plant response rating” value (wheat [7]; [18]) was 0, the “Wheat plant response rating” value (wheat [7]; [19]) was 40 and the “Corn plant response rating” value (corn [8]; [18]) was 10. The “Corn plant response rating” value (corn [8]; [19]) was 60, the “Barnyardgrass plant response rating” value (barnyardgrass [9]; [21]) was 60 and the “Barnyardgrass plant response rating” value (barnyardgrass [9]; [22]) was 20. For the same molecule, the “Crabgrass, Large plant response rating” value (crabgrass, large [10]; [21]) was 80, the “Crabgrass, Large plant response rating” value (crabgrass, large [10]; [22]) was 50 and the “Foxtail, Giant plant response rating” value (foxtail, giant [11]; [21]) was 90. For the same molecule, the “Foxtail, Giant plant response rating” value (foxtail, giant [11]; [22]) was 50, the “Morningglory plant response rating” value (morningglory [12]; [21]) was 60 and the “Morningglory plant response rating” value (morningglory [12]; [22]) was 40. The “Pigweed plant response rating” value (pigweed [13]; [21]) was 80, the “Pigweed plant response rating” value (pigweed [13]; [22]) was 50 and the “Velvetleaf plant response rating” value (velvetleaf [14]; [21]) was 50. For the same molecule, the “Velvetleaf plant response rating” value (velvetleaf [14]; [22]) was 10, the “Wheat plant response rating” value (wheat [15]; [21]) was 30 and the “Wheat plant response rating” value (wheat [15]; [22]) was 0. For the same molecule, the “Corn plant response rating” value (corn [16]; [21]) was 50, the “Corn plant response rating” value (corn [16]; [22]) was 30 and the “Plant response rating, Rice” value (rice) was 0. For the same molecule, the “Plant response rating, Sedge, Umbrella” value (sedge, umbrella) was 50, the “Plant response rating, Ducksalad” value (ducksalad) was 50 and the “Plant response rating, Barnyardgrass” value (barnyardgrass [17]) was 0.
